Measurements from patent US9233989B2, “Sila analogs of oxazolidinone derivatives and synthesis thereof” (Council of Scientific & Industrial Research, priority 2011, dated 2016).
Converted amounts (≈) assume the structure as drawn.

What was measured:
S.aureus2 (PVL + ve) = assay type: cell-based, S. aureus
[1] = tested on: E.faecalis ATCC 51299(VRE&HLAR); assay: MIC by microbroth dilution method; assay type: cell-based
E.faecium 06076 VRE = assay: MIC by microbroth dilution method; assay type: cell-based
[2] = tested on: S.aureus ATCC 13709 Smith; assay: MIC by microbroth dilution method; assay type: cell-based
[3] = tested on: S.aureus 13709 LNZ mutant; assay type: cell-based
MRSA ATCC BAA 39 = assay: MIC by microbroth dilution method; assay type: cell-based, S. aureus
[4] = tested on: S.aureus ATCC 700699 Mu50; assay: MIC by microbroth dilution method; assay type: cell-based
[5] = tested on: Mycobacterium tuberculosis H37Rv; assay: Anti-TB activity, colorimetric resazurin microtiter assay; assay type: cell-based; conditions: for MIC: Mycobacterium tuberculosis, H37RV, read-out: MIC, Minimum Inhibitory Concentration (90%)
MRSA 252 BAA 1720 = assay: MIC by microbroth dilution method; assay type: cell-based, S. aureus
E.faecalis SP 346 VRE = assay: MIC by microbroth dilution method; assay type: cell-based
[6] = tested on: S.aureus ATCC 49775 PVL + ve; assay type: cell-based
MRSE ATCC 35983 = assay: MIC by microbroth dilution method; assay type: cell-based, S. epidermidis
E.faecium ATCC 35667 = assay: MIC by microbroth dilution method; assay type: cell-based
S.epidermis St 358 = assay: MIC by microbroth dilution method; assay type: cell-based, S. epidermidis
E.faecium ATCC 49224 = assay: MIC by microbroth dilution method; assay type: cell-based
S.epidermidis ATCC 12228 = assay: MIC by microbroth dilution method; assay type: cell-based
E.faecium 134 VRE = assay: MIC by microbroth dilution method; assay type: cell-based
E.faecium 6A VRE = assay: MIC by microbroth dilution method; assay type: cell-based
MRSA DB 00026 = assay: MIC by microbroth dilution method; assay type: cell-based, S. aureus
MRSA 562 = assay: MIC by microbroth dilution method; assay type: cell-based, S. aureus
[7] = tested on: S.aureus ATCC Newman 25904; assay: MIC by microbroth dilution method; assay type: cell-based
E.faecium ATCC 19434 = assay: MIC by microbroth dilution method; assay type: cell-based
MRSE ATCC 35984 = assay: MIC by microbroth dilution method; assay type: cell-based, S. epidermidis
S.epidermidis ATCC 14990 = assay: MIC by microbroth dilution method; assay type: cell-based
E.faecalis ATCC 19433 = assay: MIC by microbroth dilution method; assay type: cell-based
E.coli 7632 = assay: MIC by microbroth dilution method; assay type: cell-based
E.faecium ATCC 3567 = assay: MIC by microbroth dilution method; assay type: cell-based
S.aureus DB00026 = assay: MIC by microbroth dilution method; assay type: cell-based
MRSA 0-2657 = assay: MIC by microbroth dilution method; assay type: cell-based, S. aureus
S.aureus ATCC 29213 = assay: MIC by microbroth dilution method; assay type: cell-based
MRSA ATCC 43300 = assay: MIC by microbroth dilution method; assay type: cell-based, S. aureus
E.faecalis ATCC 29212 = assay: MIC by microbroth dilution method; assay type: cell-based

| SMILES | MIC (S.aureus2 (PVL + ve)) [µg/mL] | MIC [1] [µg/mL] | MIC (E.faecium 06076 VRE) [µg/mL] | MIC [2] [µg/mL] | MIC [3] [µg/mL] | MIC (MRSA ATCC BAA 39) [µg/mL] | MIC [4] [µg/mL] | MIC [5] [µg/mL] | MIC (MRSA 252 BAA 1720) [µg/mL] | MIC (E.faecalis SP 346 VRE) [µg/mL] | MIC [6] [µg/mL] | MIC (MRSE ATCC 35983) [µg/mL] | MIC (E.faecium ATCC 35667) [µg/mL] | MIC (S.epidermis St 358) [µg/mL] | MIC (E.faecium ATCC 49224) [µg/mL] | MIC (S.epidermidis ATCC 12228) [µg/mL] | MIC (E.faecium 134 VRE) [µg/mL] | MIC (E.faecium 6A VRE) [µg/mL] | MIC (MRSA DB 00026) [µg/mL] | MIC (MRSA 562) [µg/mL] | further results |
| --- | --- | --- | --- | --- | --- | --- | --- | --- | --- | --- | --- | --- | --- | --- | --- | --- | --- | --- | --- | --- | --- |
| C[Si]1(C)CCN(c2c(F)cc(N3C[C@H](Cn4ccnn4)OC3=O)cc2F)CC1 [NDS-10058, (R)-5-((1H-1,2,3-triazol-1-yl)methyl)-3-(4-(4,4-dimethyl-1,4-azasilinan-1-yl)-3,5-difluorophenyl)oxazolidin-2-one] | 32 (≈ 78.5 µM) | 32 (≈ 78.5 µM) | 32 (≈ 78.5 µM) | > 32 | 32 (≈ 78.5 µM) | > 32 | > 32 | 12.5 (≈ 30.7 µM) | > 32 | 32 (≈ 78.5 µM) | 32 (≈ 78.5 µM) | 16 (≈ 39.3 µM) | > 32 | 32 (≈ 78.5 µM) | > 32 | > 32 | 4 (≈ 9.82 µM) | 16 (≈ 39.3 µM) | > 32 | > 32 | anti-tubercular activity (in words) ([5]; Mycobacterium tuberculosis H37Rv): good anti-tubercular activity; MIC [7]: 32 µg/mL (≈ 78.5 µM); MIC (E.faecium ATCC 19434): 32 µg/mL (≈ 78.5 µM); MIC (MRSE ATCC 35984): 32 µg/mL (≈ 78.5 µM); MIC (S.epidermidis ATCC 14990): > 32 µg/mL; MIC (E.faecalis ATCC 19433): 32 µg/mL (≈ 78.5 µM); MIC (E.coli 7632): 16 µg/mL (≈ 39.3 µM); MIC (E.faecium ATCC 3567): > 32 µg/mL; MIC (S.aureus DB00026): > 32 µg/mL; MIC (MRSA 0-2657): > 32 µg/mL; MIC (S.aureus ATCC 29213): > 32 µg/mL; MIC (MRSA ATCC 43300): > 32 µg/mL; MIC (E.faecalis ATCC 29212): 32 µg/mL (≈ 78.5 µM) |
| C[Si]1(C)CCN(c2ccc(N3C[C@H](CO)OC3=O)cc2F)CC1 [NDS-10059, (R)-3-(4-(4,4-dimethyl-1,4-azasilinan-1-yl)-3-fluorophenyl)-5-(hydroxymethyl)oxazolidin-2-one] | > 32 | 32 (≈ 94.5 µM) | > 32 | > 32 | > 32 | > 32 | > 32 | 100 (≈ 295 µM) | > 32 | 32 (≈ 94.5 µM) | 32 (≈ 94.5 µM) | > 32 | > 32 | 32 (≈ 94.5 µM) | > 32 | > 32 | 32 (≈ 94.5 µM) | > 32 | > 32 | > 32 | MIC [7]: > 32 µg/mL; MIC (E.faecium ATCC 19434): 32 µg/mL (≈ 94.5 µM); MIC (MRSE ATCC 35984): 32 µg/mL (≈ 94.5 µM); MIC (S.epidermidis ATCC 14990): 32 µg/mL (≈ 94.5 µM); MIC (E.faecalis ATCC 19433): > 32 µg/mL; MIC (E.coli 7632): 32 µg/mL (≈ 94.5 µM); MIC (E.faecium ATCC 3567): > 32 µg/mL; MIC (S.aureus DB00026): > 32 µg/mL; MIC (MRSA 0-2657): 32 µg/mL (≈ 94.5 µM); MIC (S.aureus ATCC 29213): > 32 µg/mL; MIC (MRSA ATCC 43300): > 32 µg/mL; MIC (E.faecalis ATCC 29212): 32 µg/mL (≈ 94.5 µM) |
| C[Si]1(C)CCN(c2ccc(N3C[C@H](Cn4ccnn4)OC3=O)cc2F)CC1 [NDS-10060, (R)-5-((1H-1,2,3-triazol-1-yl)methyl)-3-(4-(4,4-dimethyl-1,4-azasilinan-1-yl)-3-fluorophenyl)oxazolidin-2-one] | 16 (≈ 41.1 µM) | 16 (≈ 41.1 µM) | 32 (≈ 82.2 µM) | 16 (≈ 41.1 µM) | 32 (≈ 82.2 µM) | 16 (≈ 41.1 µM) | 32 (≈ 82.2 µM) | 50 (≈ 128 µM) | 32 (≈ 82.2 µM) | 16 (≈ 41.1 µM) | 16 (≈ 41.1 µM) | 32 (≈ 82.2 µM) | 32 (≈ 82.2 µM) | 16 (≈ 41.1 µM) | 32 (≈ 82.2 µM) | > 32 | 16 (≈ 41.1 µM) | 32 (≈ 82.2 µM) | 16 (≈ 41.1 µM) | 16 (≈ 41.1 µM) | MIC [7]: 16 µg/mL (≈ 41.1 µM); MIC (E.faecium ATCC 19434): 32 µg/mL (≈ 82.2 µM); MIC (MRSE ATCC 35984): 16 µg/mL (≈ 41.1 µM); MIC (S.epidermidis ATCC 14990): 8 µg/mL (≈ 20.5 µM); MIC (E.faecalis ATCC 19433): 16 µg/mL (≈ 41.1 µM); MIC (E.coli 7632): 16 µg/mL (≈ 41.1 µM); MIC (E.faecium ATCC 3567): > 32 µg/mL; MIC (S.aureus DB00026): 16 µg/mL (≈ 41.1 µM); MIC (MRSA 0-2657): 16 µg/mL (≈ 41.1 µM); MIC (S.aureus ATCC 29213): 32 µg/mL (≈ 82.2 µM); MIC (MRSA ATCC 43300): 32 µg/mL (≈ 82.2 µM); MIC (E.faecalis ATCC 29212): 8 µg/mL (≈ 20.5 µM) |
| COC(=O)NC[C@H]1CN(c2ccc(N3CC[Si](C)(C)CC3)c(F)c2)C(=O)O1 [NDS-10061, (S)-methyl((3-(4-(4,4-dimethyl-1,4-azasilinan-1-yl)-3-fluorophenyl)-2-oxooxazolidin-5-yl)methyl)carbamate] | 16 (≈ 40.5 µM) | 32 (≈ 80.9 µM) | 32 (≈ 80.9 µM) | 8 (≈ 20.2 µM) | 32 (≈ 80.9 µM) | 16 (≈ 40.5 µM) | 32 (≈ 80.9 µM) | 25 (≈ 63.2 µM) | 16 (≈ 40.5 µM) | 16 (≈ 40.5 µM) | 16 (≈ 40.5 µM) | 16 (≈ 40.5 µM) | 16 (≈ 40.5 µM) | 32 (≈ 80.9 µM) | 16 (≈ 40.5 µM) | > 32 | 16 (≈ 40.5 µM) | 32 (≈ 80.9 µM) | 16 (≈ 40.5 µM) | 16 (≈ 40.5 µM) | MIC [7]: 16 µg/mL (≈ 40.5 µM); MIC (E.faecium ATCC 19434): 32 µg/mL (≈ 80.9 µM); MIC (MRSE ATCC 35984): 8 µg/mL (≈ 20.2 µM); MIC (S.epidermidis ATCC 14990): 8 µg/mL (≈ 20.2 µM); MIC (E.faecalis ATCC 19433): 16 µg/mL (≈ 40.5 µM); MIC (E.coli 7632): 8 µg/mL (≈ 20.2 µM); MIC (E.faecium ATCC 3567): 32 µg/mL (≈ 80.9 µM); MIC (S.aureus DB00026): 8 µg/mL (≈ 20.2 µM); MIC (MRSA 0-2657): 16 µg/mL (≈ 40.5 µM); MIC (S.aureus ATCC 29213): 16 µg/mL (≈ 40.5 µM); MIC (MRSA ATCC 43300): > 32 µg/mL; MIC (E.faecalis ATCC 29212): 8 µg/mL (≈ 20.2 µM) |
